From PMC4681097 (Chemistry & biology, 2011)

Molecular target: PHD2_181-426 (Homo sapiens, UniProt Q9GZT9)
Assay: Photo cross-linking of purified PHD2 analysed by MALDI-MS
Format: binding

Sequence of PHD2_181-426 (Q9GZT9 181-426): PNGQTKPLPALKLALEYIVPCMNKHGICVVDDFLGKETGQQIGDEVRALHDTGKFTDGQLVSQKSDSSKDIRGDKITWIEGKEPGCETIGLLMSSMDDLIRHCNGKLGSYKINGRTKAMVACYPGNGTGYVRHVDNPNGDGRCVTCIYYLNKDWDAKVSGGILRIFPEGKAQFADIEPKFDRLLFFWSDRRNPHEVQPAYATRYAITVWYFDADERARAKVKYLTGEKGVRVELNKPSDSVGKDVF

- extent of cross-linking of PHD2 by DR025 in competition experiment: substantially reduced
SMILES: O=C(O)CNC(=O)c1nc(Cl)c2ccccc2c1O [[(1-chloro-4-hydroxyisoquinoline-3-carbonyl)-amino]-acetic acid]
